Experimental data as given in US12122973B2, “Guanidinium-based ionic liquid and its use as a lubricant additive” (TOTALENERGIES ONETECH, priority 2020, dated 2024).

Tests used:
[1] = Base number (BN/TBN) according to ASTM D2896; type: physicochemical; conditions: neat ionic liquid
Protocol: An oil's neutralization capacity is measured by its BN or Base Number, characterized by its basicity. It is measured according to standard ASTM D-2896 and is expressed as an equivalent in milligrams of potash per gram of oil (also called “mg of KOH/g” or “BN point”). The BN is a standard criterion making it possible to adjust the basicity of the cylinder oils to the sulphur content of the fuel oil used, in order to be able to neutralize all of the sulphur contained in the fuel, and capable of being converted to sulphuric acid by combustion and hydrolysis.
The base number of IL1 is 61 mg KOH/g according to ASTM D2896.

[2] = Solubility test of the ionic liquid in base oil; type: physicochemical; conditions: lubricant composition of IL1 and base oil; room temperature (15-25° C.) and 60° C.; limpid after three months
Description: In order to be used in a lubricant composition, the guanidinium-based ionic liquid must preferably be soluble in the base oil which represents the major part of the lubricant composition. A compound is oil-soluble when it can be solubilized at a concentration of at least 0.01% by weight with regards to the weight of a base oil, at room temperature. In order to check that the guanidinium-based ionic liquid is oil-soluble, a test is disclosed in the experimental part.
In order to check that the guanidinium-based ionic liquid is oil-soluble, the following test has been achieved:
100 mL of the lubricant composition comprising IL1 and the base oil is introduced into two reaction tubes. One of the tubes is maintained at room temperature (between 15 and 25° C.) and the other reaction tube is placed in an oven at 60° C.
After three months, the lubricant composition of both reaction tubes was limpid.

In the case of “1,1,3,3-tetramethylguanidinium tert-Octylphenylpolyethoxyethanolate [IL1]”, the base number [1] was 61 mg KOH/g and the “solubility in the oil” value [2] was “soluble in the oil”.
